Patent publication US8299113B2, “Bicyclic tetrahydropyrrole compounds” (Laboratorios del Dr. Esteve, S.A., priority 2006, dated 2012)

Key:
σ1-receptor = target: T1, σ1-receptor (Cavia porcellus, UniProt Q60492); experiment: Sigma-1 receptor radioligand binding, [3H](+)-pentazocine, brain membranes; settings: [3H](+)-pentazocine 0.5 nM, guinea pig brain membranes; for % Binding σ1 10^−7M: compound concentration 10^−7 M; for % Binding σ1 10^−8M: compound concentration 10^−8 M
T1 construct: guinea pig brains are homogenized; from tissue; host or cells: guinea pig brain membranes
T1 sequence (Q60492 whole entry): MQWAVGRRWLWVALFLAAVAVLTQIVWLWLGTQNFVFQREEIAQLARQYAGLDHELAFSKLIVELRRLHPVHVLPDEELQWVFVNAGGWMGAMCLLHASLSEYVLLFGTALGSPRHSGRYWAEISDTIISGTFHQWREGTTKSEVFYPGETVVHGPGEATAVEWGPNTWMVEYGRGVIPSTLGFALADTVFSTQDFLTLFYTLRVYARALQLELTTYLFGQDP
Procedure: Brain membrane preparation and binding assays for the σ1-receptor are performed as described (DeHaven-Hudkins et al., 1992) with some modifications. In brief, guinea pig brains are homogenized in 10 vols. (w/v) of Tris-HCl 50 mM 0.32 M sucrose, pH 7.4 is centrifuged at 1000 g for 10 min at 4° C. and the supernatants collected and centrifuged again at 48000 g for 15 min at 4° C. The pellet is resuspended in 10 volumes of Tris-HCl buffer (50 mM, pH 7.4), incubated at 37° C. for 30 min, and centrifuged at 48000 g for 20 min at 4° C. Following this, the pellet is resuspended in fresh Tris-HCl buffer (50 mM, pH 7.4) and stored on ice until use.
Each assay tube contain 10 μL of [^3H](+)-pentazocine (final concentration of 0.5 nM), 900 μL of the tissue suspension to a final assay volume of 1 mL and a final tissue concentration of approximately 30 mg tissue net weight/mL. […] All tubes are incubated at 37° C. for 150 min before termination of the reaction by rapid filtration over Schleicher & Schuell GF 3362 glass fibre filters [previously soaked in a solution of 0.5% polyethylenimine for at least 1 h]. Filters are then washed four times with 4 mL of cold Tris-HCl buffer (50 mM, pH 7.4). Following addition of scintillation cocktail, the samples are allowed to equilibrate overnight. The amount of bound radioactivity is determined by liquid scintillation spectrometry using a Wallac Winspectral 1414 liquid scintillation counter. Protein concentrations are determined by the method of Lowry et al. (1951).

sigma (σ-2) site = sigma (σ-2) site (Homo sapiens, UniProt Q5BJF2); settings: background, in words; cited from earlier work
Chain of sigma (σ-2) site (Q5BJF2 whole entry): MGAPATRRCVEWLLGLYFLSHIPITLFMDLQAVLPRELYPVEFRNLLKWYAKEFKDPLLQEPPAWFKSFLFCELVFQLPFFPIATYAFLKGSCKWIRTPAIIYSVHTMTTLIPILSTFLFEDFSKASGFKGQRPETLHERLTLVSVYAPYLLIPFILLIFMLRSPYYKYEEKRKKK

sigma 1 (σ-1) site = sigma 1 (σ-1) site (Homo sapiens, UniProt Q99720); settings: background, in words; cited from earlier work
Chain of sigma 1 (σ-1) site (Q99720 whole entry): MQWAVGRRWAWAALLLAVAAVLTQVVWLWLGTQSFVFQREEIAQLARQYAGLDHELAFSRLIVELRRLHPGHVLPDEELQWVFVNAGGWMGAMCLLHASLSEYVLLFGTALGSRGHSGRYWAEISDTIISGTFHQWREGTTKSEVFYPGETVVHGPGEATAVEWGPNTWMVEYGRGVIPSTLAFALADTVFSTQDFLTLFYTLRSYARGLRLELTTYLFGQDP

Compound	% Binding σ1 10^−7M (σ1-receptor) [%]	% Binding σ1 10^−8M (σ1-receptor) [%]	affinity for the sigma (σ-2) site (sigma (σ-2) site)	affinity for the sigma 1 (σ-1) site (sigma 1 (σ-1) site)
CCOC(=O)[C@H](C)N1C[C@H]2C=C(c3ccccc3)C(=O)[C@H]2C1 [Example 11]	33.2	25.6		
COC(=O)[C@H](c1ccccc1)N1C[C@H]2C=C(c3ccccc3)C(=O)[C@H]2C1 [Example 3]	31.3	28.0		
CCCCC1=C[C@@H]2CN([C@@H](C)C(=O)OCC)C[C@@H]2C1=O [Example 13, (2S)-ethyl2-((3aR,6aS)-5-butyloxo-1,3a,4,6a-tetrahydrocyclopenta[c]pyrrol-2(1H)-yl)propanoate]	26.9	17.6		
CCOC(=O)[C@H](C)N1C[C@@H]2C=C(c3ccccc3)C(=O)[C@@H]2C1 [Example 12]	32.4	16.7		
CCCCC1=C[C@H]2CN([C@@H](C)C(=O)OCC)C[C@H]2C1=O [Example 14, (2S)-ethyl 2-((3aS,6aR)-5-butyl-4-oxo-1,3a,4,6a-tetrahydrocyclopenta[c]pyrrol-2(1H)-yl)propanoate]	39.6	28.8		
COC(=O)[C@H](c1ccccc1)N1C[C@@H]2C=C(c3ccccc3)C(=O)[C@@H]2C1 [Example 4]	32.3	24.8		
SKF 10047			micromolar	nanomolar
